Common to all, as to type: cell-based
The subject of assay [1] is Mannheimia haemolytica MH 6357 (M7/2, reference strain, cattle infection strain). As to the kind of experiment: MIC, broth-microdilution (CLSI VET01-A4), strain MH 6357. The conditions noted are these: Mannheimia haemolytica strain MH 6357, broth-microdilution; unit assumed. An outline of the steps: (§1)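 MIC recorded as the lowest drug level giving no growth visible to the naked eye, from two-fold serial dilutions. Interpretation followed VET01-S3.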
On the technique in general: Broth dilution looks for growth in wells or tubes with falling amounts of substance.

In assay [2] the test system is Mannheimia haemolytica MH 6374 (ATCC 33396, reference strain). Put plainly: MIC, broth-microdilution (CLSI VET01-A4), strain MH 6374. The conditions noted are these: Mannheimia haemolytica strain MH 6374, broth-microdilution; unit assumed. Summed up: as §1
The test system of assay [3] is Mannheimia haemolytica MH 10720 (154, BRD field isolate). As to the kind of experiment: MIC, broth-microdilution (CLSI VET01-A4), strain MH 10720. The conditions noted are these: Mannheimia haemolytica strain MH 10720, broth-microdilution; unit assumed. An outline of the steps:
as §1

Assay [4] deals with Mannheimia haemolytica MH 12587 (1071, BRD field isolate, macrolide-resistance: erm+, E+). Put plainly: MIC, broth-microdilution (CLSI VET01-A4), strain MH 12587. The conditions noted are these: Mannheimia haemolytica strain MH 12587, broth-microdilution; unit assumed. An outline of the steps: as §1
Assay [5] has as its system Mannheimia haemolytica MH 13065 (XB0446-6003.9, BRD field isolate). As to the kind of experiment: MIC, broth-microdilution (CLSI VET01-A4), strain MH 13065. The settings on record: Mannheimia haemolytica strain MH 13065, broth-microdilution; unit assumed. Summed up: as §1
Assay [6] relates to Mannheimia haemolytica MH 13093 (XB0472-6014.1, BRD field isolate). Put plainly: MIC, broth-microdilution (CLSI VET01-A4), strain MH 13093. The settings on record: Mannheimia haemolytica strain MH 13093, broth-microdilution; unit assumed. Summed up:
as §1

Assay [7] deals with Pasteurella multocida PM 6267 (P 2225 (L386), reference strain, mouse infection strain). As to the kind of experiment: MIC, broth-microdilution (CLSI VET01-A4), strain PM 6267. The settings on record: Pasteurella multocida strain PM 6267, broth-microdilution; unit assumed. Summed up: as §1
The test system of assay [8] is Pasteurella multocida PM 6391 (ATCC 43137, reference strain). As to the kind of experiment: MIC, broth-microdilution (CLSI VET01-A4), strain PM 6391. The conditions noted are these: Pasteurella multocida strain PM 6391, broth-microdilution; unit assumed. An outline of the steps:
as §1

For assay [9], the system named is Pasteurella multocida PM 10775 (080130003051, BRD field isolate). As to the kind of experiment: MIC, broth-microdilution (CLSI VET01-A4), strain PM 10775. The settings on record: Pasteurella multocida strain PM 10775, broth-microdilution; unit assumed. Summed up:
as §1

The subject of assay [10] is Pasteurella multocida PM 12080 (IV102277-0093, BRD field isolate). As to the kind of experiment: MIC, broth-microdilution (CLSI VET01-A4), strain PM 12080. The settings on record: Pasteurella multocida strain PM 12080, broth-microdilution; unit assumed. An outline of the steps: as §1

Values after ≈ are worked out from the molar mass of the structure shown. Some results are limits rather than exact numbers.

In the case of `CC(C)(O)[C@H](NC(=O)c1ccc(C#Cc2ccc(CNCc3nccs3)nc2)cc1)C(=O)NO` [Compound 362], the MIC MH 6357 in assay [1] worked out at 3.1 µg/mL (≈ 6.46 µM). In addition, the MIC MH 6374 in assay [2] turned out to be 0.8 µg/mL (≈ 1.67 µM). In assay [3], this compound returned an MIC MH 10720 of 0.4 µg/mL (≈ 0.834 µM). This compound also yielded an MIC MH 12587 in assay [4] of 3.1 µg/mL (≈ 6.46 µM). The MIC MH 13065 in assay [5] was 1.6 µg/mL (≈ 3.34 µM). For the same compound, the MIC MH 13093 in [6] came out at 3.1 µg/mL (≈ 6.46 µM). Further, the MIC PM 6267 in assay [7] worked out at 0.2 µg/mL (≈ 0.417 µM). Moreover, the MIC PM 6391 in assay [8] was determined as 0.4 µg/mL (≈ 0.834 µM). Moreover, in assay [9], the MIC PM 10775 is at most 0.1 µg/mL. This compound also had an MIC PM 12080 in assay [10] of 0.2 µg/mL (≈ 0.417 µM).
`CC(C)(O)[C@H](NC(=O)c1ccc(C#Cc2ccc(CNCc3ncccn3)nc2)cc1)C(=O)NO` [Compound 363] showed an MIC MH 6357 in assay [1] of 6.3 µg/mL (≈ 13.3 µM). Further, in [2], the MIC MH 6374 came to 6.3 µg/mL (≈ 13.3 µM). The compound further had an MIC MH 10720 in assay [3] of 3.1 µg/mL (≈ 6.53 µM). The MIC MH 12587 in assay [4] is 25 µg/mL (≈ 52.7 µM). The MIC MH 13065 in assay [5] turned out to be 12.5 µg/mL (≈ 26.3 µM). In addition, the MIC MH 13093 in assay [6] was determined as 25 µg/mL (≈ 52.7 µM). The MIC PM 6267 in [7] was determined as 1.6 µg/mL (≈ 3.37 µM). This compound yielded an MIC PM 6391 in assay [8] of 3.1 µg/mL (≈ 6.53 µM). The compound further registered an MIC PM 10775 in assay [9] of 0.4 µg/mL (≈ 0.843 µM). Moreover, the MIC PM 12080 in [10] was found to be 1.6 µg/mL (≈ 3.37 µM).
The compound `CSC(C)(C)[C@H](NC(=O)c1ccc(C#Cc2ccc(CNCc3ccncc3)s2)cc1)C(=O)NO` [Compound 364] gave an MIC MH 6357 in [1] of 0.8 µg/mL (≈ 1.57 µM). Further, in assay [2], the MIC MH 6374 is 0.8 µg/mL (≈ 1.57 µM). In addition, the MIC MH 10720 in assay [3] is 0.2 µg/mL (≈ 0.393 µM). The compound also returned an MIC MH 12587 in [4] of 1.6 µg/mL (≈ 3.15 µM). Besides, the MIC MH 13065 in assay [5] came out at 0.8 µg/mL (≈ 1.57 µM). Moreover, the MIC MH 13093 in [6] is 0.8 µg/mL (≈ 1.57 µM). This compound also displayed an MIC PM 6267 in [7] of 0.4 µg/mL (≈ 0.786 µM). Moreover, the MIC PM 6391 in [8] is 0.4 µg/mL (≈ 0.786 µM). In assay [9], this compound registered an MIC PM 10775 of at most 0.1 µg/mL. Moreover, the MIC PM 12080 in assay [10] is at most 0.1 µg/mL.
In the case of `CSC(C)(C)[C@H](NC(=O)c1ccc(C#Cc2ccc(CNCc3nccs3)s2)cc1)C(=O)NO` [Compound 365], the MIC MH 6357 in [1] was 0.8 µg/mL (≈ 1.55 µM). The compound also came in with an MIC MH 6374 in [2] of 0.8 µg/mL (≈ 1.55 µM). The same compound gave an MIC MH 10720 in [3] of 0.2 µg/mL (≈ 0.389 µM). Moreover, the MIC MH 12587 in assay [4] worked out at 3.1 µg/mL (≈ 6.02 µM). In [5], the MIC MH 13065 is 1.6 µg/mL (≈ 3.11 µM). Also, in [6], the MIC MH 13093 is 1.6 µg/mL (≈ 3.11 µM). Besides, the MIC PM 6267 in [7] stood at 0.4 µg/mL (≈ 0.777 µM). Moreover, the MIC PM 6391 in assay [8] worked out at 0.4 µg/mL (≈ 0.777 µM). Moreover, the MIC PM 10775 in assay [9] is at most 0.1 µg/mL. Further, the MIC PM 12080 in assay [10] was at most 0.1 µg/mL.
The compound `CSC(C)(C)[C@H](NC(=O)c1ccc(C#Cc2ccc(CNCc3ncccn3)s2)cc1)C(=O)NO` [Compound 366] came in with an MIC MH 6357 in assay [1] of 0.8 µg/mL (≈ 1.57 µM). Also, the MIC MH 6374 in assay [2] turned out to be 0.8 µg/mL (≈ 1.57 µM). In addition, the MIC MH 10720 in assay [3] came out at 0.2 µg/mL (≈ 0.392 µM). In addition, the MIC MH 12587 in assay [4] turned out to be 1.6 µg/mL (≈ 3.14 µM). This compound also gave an MIC MH 13065 in assay [5] of 0.8 µg/mL (≈ 1.57 µM). This compound showed an MIC MH 13093 in assay [6] of 1.6 µg/mL (≈ 3.14 µM). Besides, in assay [7], the MIC PM 6267 is 0.4 µg/mL (≈ 0.785 µM). This compound showed an MIC PM 6391 in [8] of 0.4 µg/mL (≈ 0.785 µM). In assay [9], this compound displayed an MIC PM 10775 of at most 0.1 µg/mL. Also, the MIC PM 12080 in assay [10] came out at 0.2 µg/mL (≈ 0.392 µM).
`CSC(C)(C)[C@H](NC(=O)c1ccc(C#Cc2ccc(CNCc3cccnc3)nc2)cc1)C(=O)NO` [Compound 367] gave an MIC MH 6357 in assay [1] of 0.8 µg/mL (≈ 1.59 µM). For the same compound, in [2], the MIC MH 6374 was 0.8 µg/mL (≈ 1.59 µM). The MIC MH 10720 in assay [3] is 0.4 µg/mL (≈ 0.794 µM). Besides, the MIC MH 12587 in assay [4] was 3.1 µg/mL (≈ 6.16 µM). In addition, the MIC MH 13065 in assay [5] was 1.6 µg/mL (≈ 3.18 µM). Moreover, the MIC MH 13093 in assay [6] came out at 3.1 µg/mL (≈ 6.16 µM). Also, the MIC PM 6267 in [7] is 0.4 µg/mL (≈ 0.794 µM). Moreover, the MIC PM 6391 in assay [8] is 0.4 µg/mL (≈ 0.794 µM). This compound also showed an MIC PM 10775 in assay [9] of at most 0.1 µg/mL. In assay [10], this compound showed an MIC PM 12080 of 0.2 µg/mL (≈ 0.397 µM).
`CSC(C)(C)[C@H](NC(=O)c1ccc(C#Cc2ccc(CNCc3nccs3)nc2)cc1)C(=O)NO` [Compound 368] returned an MIC MH 6357 in assay [1] of 0.8 µg/mL (≈ 1.57 µM). In [2], this compound had an MIC MH 6374 of 0.8 µg/mL (≈ 1.57 µM). In assay [3], this compound returned an MIC MH 10720 of 0.4 µg/mL (≈ 0.785 µM). The same compound had an MIC MH 12587 in assay [4] of 1.6 µg/mL (≈ 3.14 µM). Also, the MIC MH 13065 in assay [5] was 0.8 µg/mL (≈ 1.57 µM). The same compound displayed an MIC MH 13093 in assay [6] of 1.6 µg/mL (≈ 3.14 µM). The compound also gave an MIC PM 6267 in assay [7] of 0.4 µg/mL (≈ 0.785 µM). The compound further displayed an MIC PM 6391 in assay [8] of 0.4 µg/mL (≈ 0.785 µM). For the same compound, in assay [9], the MIC PM 10775 is at most 0.1 µg/mL. The same compound had an MIC PM 12080 in assay [10] of 0.2 µg/mL (≈ 0.392 µM).
`CC(C)([C@H](NC(=O)c1ccc(C#Cc2ccc(CNCc3nccs3)s2)cc1)C(=O)NO)S(C)(=O)=O` [Compound 369] had an MIC MH 6357 in assay [1] of 0.4 µg/mL (≈ 0.732 µM). This compound returned an MIC MH 6374 in assay [2] of 0.2 µg/mL (≈ 0.366 µM). The compound further came in with an MIC MH 10720 in assay [3] of at most 0.1 µg/mL. In addition, the MIC MH 12587 in assay [4] came out at 0.4 µg/mL (≈ 0.732 µM). Further, the MIC MH 13065 in assay [5] turned out to be 0.4 µg/mL (≈ 0.732 µM). Further, in [6], the MIC MH 13093 came out at 0.4 µg/mL (≈ 0.732 µM). In [7], the MIC PM 6267 is at most 0.1 µg/mL. The compound also displayed an MIC PM 6391 in assay [8] of at most 0.1 µg/mL. Further, the MIC PM 10775 in assay [9] was at most 0.1 µg/mL. The MIC PM 12080 in assay [10] was at most 0.1 µg/mL.
